Active and inactive are the calls of the source. The calls are words filed in the database; no cut-off is given here.
What was measured:
NCI-H1650 [1] = assay: Cytotoxicity in human NCI-H1650 cells assessed as reduction in cell viability at 20 to 50 uM incubated for 24 hrs followed by medium replacement with RPMI medium with 10% FCS for 48 hrs by MTT assay; type: functional, cell-based
NCI-H2170 = assay: Cytotoxicity in human NCI-H2170 cells assessed as reduction in cell viability at 5 to 50 uM incubated for 96 hrs by MTT assay; type: functional, cell-based
[2] = target: Transcriptional coactivator YAP1 (Homo sapiens) (UniProt P46937); assay: Inhibition of YAP1 (unknown origin) assessed as disruption in YAP1/OCT4 interaction at 50 uM by cell based assay
[3] = target: Transcriptional coactivator YAP1 (Homo sapiens) (UniProt P46937); assay: Inhibition of YAP1 (unknown origin) assessed as disruption in YAP1/OCT4 interaction at 10 uM by ELISA relative to control
[4] = Cytotoxicity in human cancer associated fibroblasts at 20 to 50 uM incubated for 24 to 48 hrs by cytotracker-red/green dye staining based immunofluorescence microscopy
NCI-H2286 = assay: Cytotoxicity in human NCI-H2286 cells assessed as reduction in cell viability at 5 to 50 uM incubated for 96 hrs by MTT assay; type: functional, cell-based
NCI-H1650 [5] = assay: Cytotoxicity in human NCI-H1650 cells assessed as reduction in cell viability at 20 to 50 uM incubated for 72 hrs by MTT assay; type: functional, cell-based
NCI-H1650 [6] = assay: Cytotoxicity in human NCI-H1650 cells assessed as reduction in cell viability at 1 to 20 uM incubated for 72 hrs by MTT assay; type: functional, cell-based
NCI-H1650 [7] = assay: Inhibition of self-renewal capacity in stem-like side-population cells of human NCI-H1650 cells assessed as reduction in number of spheres at 5 to 50 uM incubated for 10 days by sphere formation assay; type: functional, cell-based
A549 = assay: Cytotoxicity in human A549 cells assessed as reduction in cell viability at 1 to 20 uM incubated for 72 hrs by MTT assay; type: functional, cell-based
NCI-H1650 [8] = assay: Cytotoxicity in human NCI-H1650 cells assessed as induction of cell killing in presence of cancer associated fibroblasts at 20 to 50 uM incubated for 24 to 48 hrs by cytotracker-red/green dye staining based immunofluorescence microscopy; type: functional
[9] = target: Transcriptional coactivator YAP1 (Homo sapiens) (UniProt P46937); assay: Inhibition of YAP1 in human NCI-H1703 cells assessed as suppression of PD-L1 mRNA expression at 5 to 10 uM incubated for 72 hrs by RT-PCR method; type: cell-based
[10] = target: Transcriptional coactivator YAP1 (Homo sapiens) (UniProt P46937); assay: Inhibition of YAP1 in human NCI-H1703 cells assessed as suppression of fibronectin mRNA expression at 5 to 10 uM incubated for 72 hrs by RT-PCR method; type: cell-based
[11] = target: Transcriptional coactivator YAP1 (Homo sapiens) (UniProt P46937); assay: Inhibition of YAP1 in human NCI-H1650 cells assessed as suppression of Sox2 mRNA expression at 5 to 10 uM incubated for 72 hrs by RT-PCR method; type: cell-based
[12] = target: Transcriptional coactivator YAP1 (Homo sapiens) (UniProt P46937); assay: Inhibition of YAP1 in human NCI-H1650 cells assessed as suppression of HK2 mRNA expression at 5 to 10 uM incubated for 72 hrs by RT-PCR method; type: cell-based
[13] = target: Transcriptional coactivator YAP1 (Homo sapiens) (UniProt P46937); assay: Inhibition of YAP1 in human NCI-H1703 cells assessed as suppression of HK2 mRNA expression at 5 to 10 uM incubated for 72 hrs by RT-PCR method; type: cell-based
NCI-H1650 [14] = assay: Inhibition of adherence-independent cell growth in human NCI-H1650 cells at 5 uM incubated for 33 days; type: functional, cell-based
[15] = target: Transcriptional coactivator YAP1 (Homo sapiens) (UniProt P46937); assay: Inhibition of YAP1 in human NCI-H146 cells assessed as suppression of Sox2 mRNA expression at 5 to 10 uM incubated for 72 hrs by RT-PCR method; type: cell-based
[16] = target: Transcriptional coactivator YAP1 (Homo sapiens) (UniProt P46937); assay: Inhibition of YAP1 in human NCI-H1703 cells assessed as suppression of Sox2 mRNA expression at 5 to 10 uM incubated for 72 hrs by RT-PCR method; type: cell-based
NCI-H1703 [17] = assay: Effect on expression of Nanog mRNA expression in human NCI-H1703 cells at 5 to 10 uM incubated for 72 hrs by RT-PCR method; type: cell-based; conditions: nci-h1703, 72 h
[18] = target: Transcriptional coactivator YAP1 (Homo sapiens) (UniProt P46937); assay: Inhibition of YAP1 in human A549 cells assessed as reduction in Sox2 protein expression at 10 uM incubated for 72 hrs by Western blot analysis; type: cell-based
[19] = target: Transcriptional coactivator YAP1 (Homo sapiens) (UniProt P46937); assay: Inhibition of YAP1 in human A549 cells assessed as reduction in PDK2 protein expression at 10 uM incubated for 72 hrs by Western blot analysis; type: cell-based
NCI-H1703 [20] = assay: Inhibition of adherence-independent cell growth in human NCI-H1703 cells at 5 uM incubated for 33 days; type: functional, cell-based
[21] = target: Transcriptional coactivator YAP1 (Homo sapiens) (UniProt P46937); assay: Inhibition of YAP1 in human NCI-H146 cells assessed as suppression of PDK2 mRNA expression at 5 to 10 uM incubated for 72 hrs by RT-PCR method; type: cell-based
NCI-H1975 = assay: Cytotoxicity in gefitinib and erlotinib resistant human NCI-H1975 cells assessed as reduction in cell viability at 1 to 10 uM incubated for 72 hrs by MTT assay; type: functional, cell-based
[22] = target: Transcriptional coactivator YAP1 (Homo sapiens) (UniProt P46937); assay: Inhibition of YAP1 in human NCI-H1650 cells assessed as reduction in c-Myc protein expression at 10 uM incubated for 72 hrs by Western blot analysis; type: cell-based
NCI-H146 [23] = assay: Inhibition of self-renewal capacity in methotrexate insensitive stem-like side-population cells of human NCI-H146 cells assessed as reduction in number of spheres at 2 uM incubated for 3 days after 7 days methotrexate exposure by sphere formation assay; type: functional
[24] = target: Transcriptional coactivator YAP1 (Homo sapiens) (UniProt P46937); assay: Inhibition of YAP1 in human NCI-H146 cells assessed as suppression of HK2 mRNA expression at 5 to 10 uM incubated for 72 hrs by RT-PCR method; type: cell-based
[25] = target: Transcriptional coactivator YAP1 (Homo sapiens) (UniProt P46937); assay: Inhibition of YAP1 in human NCI-H1650 cells assessed as suppression of PDK2 mRNA expression at 5 to 10 uM incubated for 72 hrs by RT-PCR method; type: cell-based
NCI-H1650 [26] = assay: Inhibition of YAP1/TEAD2 interaction in human NCI-H1650 cells assessed as suppression of CTGF mRNA expression at 5 to 10 uM incubated for 72 hrs by RT-PCR method; type: cell-based
[27] = target: Transcriptional coactivator YAP1 (Homo sapiens) (UniProt P46937); assay: Inhibition of YAP1 in human NCI-H1650 cells assessed as reduction in Sox2 protein expression at 10 uM incubated for 72 hrs by Western blot analysis; type: cell-based
NCI-H1703 [28] = assay: Effect on expression of Oct4 mRNA expression in human NCI-H1703 cells at 5 to 10 uM incubated for 72 hrs by RT-PCR method; type: cell-based; conditions: nci-h1703, 72 h
[29] = target: Transcriptional coactivator YAP1 (Homo sapiens) (UniProt P46937); assay: Inhibition of YAP1 in human NCI-H1650 cells assessed as suppression of fibronectin mRNA expression at 5 to 10 uM incubated for 72 hrs by RT-PCR method; type: cell-based
[30] = target: Transcriptional coactivator YAP1 (Homo sapiens) (UniProt P46937); assay: Inhibition of YAP1 in human A549 cells assessed as reduction in c-Myc protein expression at 10 uM incubated for 72 hrs by Western blot analysis; type: cell-based
[31] = target: Transcriptional coactivator YAP1 (Homo sapiens) (UniProt P46937); assay: Inhibition of YAP1 in human NCI-H1703 cells assessed as suppression of PDK2 mRNA expression at 5 to 10 uM incubated for 72 hrs by RT-PCR method; type: cell-based
NCI-H1703 [32] = assay: Inhibition of adherence-independent cell growth in human NCI-H1703 cells at 10 uM incubated for 33 days; type: functional, cell-based
[33] = target: Transcriptional coactivator YAP1 (Homo sapiens) (UniProt P46937); assay: Inhibition of YAP1 in human NCI-H1650 cells assessed as reduction in PDK2 protein expression at 10 uM incubated for 72 hrs by Western blot analysis; type: cell-based
NCI-H1650 [34] = assay: Effect on expression of Nanog mRNA expression in human NCI-H1650 cells at 5 to 10 uM incubated for 72 hrs by RT-PCR method; type: cell-based; conditions: nci-h1650, 72 h
[35] = target: Transcriptional coactivator YAP1 (Homo sapiens) (UniProt P46937); assay: Inhibition of YAP1 in human NCI-H1650 cells assessed as suppression of vimentin mRNA expression at 5 to 10 uM incubated for 72 hrs by RT-PCR method; type: cell-based
NCI-H146 [36] = assay: Effect on expression of Nanog mRNA expression in human NCI-H146 cells at 5 to 10 uM incubated for 72 hrs by RT-PCR method; type: cell-based; conditions: nci-h146, 72 h
[37] = target: Transcriptional coactivator YAP1 (Homo sapiens) (UniProt P46937); assay: Inhibition of YAP1 in human NCI-H1703 cells assessed as suppression of vimentin mRNA expression at 5 to 10 uM incubated for 72 hrs by RT-PCR method; type: cell-based
NCI-H1650 [38] = assay: Effect on expression of Oct4 mRNA expression in human NCI-H1650 cells at 5 to 10 uM incubated for 72 hrs by RT-PCR method; type: cell-based; conditions: nci-h1650, 72 h
[39] = target: Transcriptional coactivator YAP1 (Homo sapiens) (UniProt P46937); assay: Inhibition of YAP1 in human NCI-H1650 cells assessed as suppression of PD-L1 mRNA expression at 5 to 10 uM incubated for 72 hrs by RT-PCR method; type: cell-based
NCI-H1703 [40] = assay: Inhibition of YAP1/TEAD2 interaction in human NCI-H1703 cells assessed as suppression of CTGF mRNA expression at 5 to 10 uM incubated for 72 hrs by RT-PCR method; type: cell-based
NCI-H1650 [41] = assay: Inhibition of adherence-independent cell growth in human NCI-H1650 cells at 10 uM incubated for 33 days; type: functional, cell-based
NCI-H146 [42] = assay: Effect on expression of Oct4 mRNA expression in human NCI-H146 cells at 5 to 10 uM incubated for 72 hrs by RT-PCR method; type: cell-based; conditions: nci-h146, 72 h

Chain of Transcriptional coactivator YAP1 (Homo sapiens) (P46937 whole entry): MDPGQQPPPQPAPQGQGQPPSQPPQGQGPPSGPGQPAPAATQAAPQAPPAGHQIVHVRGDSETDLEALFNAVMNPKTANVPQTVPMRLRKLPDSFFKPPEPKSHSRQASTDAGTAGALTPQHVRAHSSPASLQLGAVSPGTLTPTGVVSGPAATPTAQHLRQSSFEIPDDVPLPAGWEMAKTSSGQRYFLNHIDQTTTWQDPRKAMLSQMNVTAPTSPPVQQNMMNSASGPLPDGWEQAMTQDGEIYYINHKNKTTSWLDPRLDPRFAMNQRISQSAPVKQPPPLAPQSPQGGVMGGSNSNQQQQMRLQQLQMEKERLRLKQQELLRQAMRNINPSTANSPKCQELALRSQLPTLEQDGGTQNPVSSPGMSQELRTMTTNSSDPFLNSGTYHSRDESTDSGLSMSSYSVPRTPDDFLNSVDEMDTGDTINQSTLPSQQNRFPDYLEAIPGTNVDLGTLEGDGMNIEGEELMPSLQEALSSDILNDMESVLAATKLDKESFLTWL

COC(=O)[C@H](Cc1ccc(OCc2ccccc2)cc1)NC(=O)CC1CCN(C(=O)Cc2ccccc2)CC1
Activity (NCI-H1650 [1]): Active
Activity (NCI-H2170): Active
inhibition [2]: 82%
inhibition [3]: 80%
Activity [4]: Non-Toxic
Activity (NCI-H2286): Active
Activity (NCI-H1650 [5]): Active
Activity (NCI-H1650 [6]): Active
inhibition (NCI-H1650 [7]): Active
Activity (A549): Active
Activity (NCI-H1650 [8]): Active

COC(=O)[C@H](Cc1ccc(OCc2ccccc2)cc1)NC(=O)CC1CCN(C(=O)CCCc2ccccc2)CC1
inhibition [9]: Active
inhibition [10]: Active
inhibition [11]: Active
inhibition [12]: Active
inhibition [13]: Active
inhibition (NCI-H1650 [14]): Active
inhibition [15]: Active
inhibition [16]: Active
Activity (NCI-H1703 [17]): Non-Toxic
inhibition [18]: Active
inhibition [19]: Active
inhibition (NCI-H1703 [20]): Active
inhibition [21]: Active
Activity (NCI-H1975): Active
inhibition [22]: Active
inhibition (NCI-H146 [23]): Active
inhibition [24]: Active
inhibition [25]: Active
inhibition (NCI-H1650 [26]): inactive
inhibition [27]: Active
Activity (NCI-H1703 [28]): Non-Toxic
inhibition [29]: Active
inhibition [30]: Active
inhibition [31]: Active
inhibition (NCI-H1703 [32]): Active
inhibition [33]: Active
Activity (NCI-H1650 [34]): Non-Toxic
inhibition [35]: Active
Activity (NCI-H146 [36]): Non-Toxic
inhibition [37]: Active
Activity (NCI-H1650 [38]): Non-Toxic
inhibition [39]: Active
inhibition (NCI-H1703 [40]): inactive
inhibition (NCI-H1650 [41]): Active
Activity (NCI-H146 [42]): Non-Toxic

COC(=O)[C@H](Cc1ccc(OCc2ccccc2)cc1)NC(=O)CC1CCN(C(=O)Cc2ccc(NC(=O)OC(C)(C)C)cc2)CC1
inhibition [18]: Active
inhibition [19]: Active
inhibition [22]: Active
inhibition [27]: Active
inhibition [30]: Active
inhibition [33]: Active

Source: ChEMBL document CHEMBL4419178, “Yap1 inhibitors that target the interaction of yap1 with oct4” (2018)
